Earlier results, collected in publication PMC9065038 (Scientific Reports, 2022).

Tests used:
[1] = design: method as in PMID 28635181; conditions: rats
[2] = in vivo
[3] = in vivo; remark: listed apart in the source
[4] = constipation, respiratory depression
[5] = target: NOP receptor (S346, S351, T362/S363) (Homo sapiens, UniProt P41146)
NOP receptor (S346, S351, T362/S363), sequence (P41146 whole entry): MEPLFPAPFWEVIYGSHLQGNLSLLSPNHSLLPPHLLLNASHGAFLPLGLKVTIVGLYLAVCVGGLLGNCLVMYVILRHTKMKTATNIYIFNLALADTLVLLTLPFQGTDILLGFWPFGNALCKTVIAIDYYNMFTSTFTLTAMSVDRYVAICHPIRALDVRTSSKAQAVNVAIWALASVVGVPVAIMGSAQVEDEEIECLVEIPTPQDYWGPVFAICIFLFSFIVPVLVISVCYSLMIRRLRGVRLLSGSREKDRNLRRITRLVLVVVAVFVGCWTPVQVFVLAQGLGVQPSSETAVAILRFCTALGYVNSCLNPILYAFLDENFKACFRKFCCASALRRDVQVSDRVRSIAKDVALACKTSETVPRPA

CCC1C(=O)N(C2CCN(CCC(c3ccccc3)c3ccccc3)CC2)c2ccccc21 (stereo not drawn) [AT-034]
cocaine self-administration [1]: significantly reduce cocaine self-administration

CC(C)[C@H]1CC[C@@H](N2CCC3(CC2)C(=O)N(CCNS(N)(=O)=O)Cc2ccccc23)CC1 [AT-121]
anti-nociceptive and anti-hyperalgesic effects [2]: potent anti-nociceptive and anti-hyperalgesic effects
reinforcing effects or physical dependence [3]: devoid of reinforcing effects or physical dependence
tolerance development [3]: significantly lower tolerance development

COc1ccsc1CNCC[C@@]1(c2ccccn2)CCOC2(CCCC2)C1 [TRV130]
side-effects in clinical trials [4]: failed to produce therapeutic results devoid of side-effects

buprenorphine
NOP phosphorylation profile (in words) [5]: none at NOP
